Data reported in article PMC8764033, “Single-molecule analysis of specificity and multivalency in binding of short linear substrate motifs to the APC/C” (Nature Communications, 2022).
“And” between values parts separate entries of the source, which are not always exact repeats. Identical values can stand only once. Like-named read-outs stand apart in the source and are kept apart here. Where a SMILES comes first, the peptide text is derived from it.

Tests used:
Type in all cases: binding
hCdh1^WD40 = target: T1, hCdh1^WD40 (Homo sapiens, UniProt Q9UM11); assay: SMOR assay, human Cdh1 WD40; conditions: for mean dwell time: representative of two independent experiments, ± SE, ligand ≤1 nM, buffer C + BSA
T1 construct: human Cdh1 (aa 165–484; pNH164); made in house; host or cells: Sf9 insect cells (baculovirus)
Protocol: Activators were cloned into the pFastBac HT A vector, with an N-terminal 2xStrep-Tag II. For some experiments, we constructed vectors for expression of the WD40 domains of yeast Cdh1 (aa 241–550; pNH144), human Cdh1 (aa 165–484; pNH164), or human Cdc20 (aa 162–484; pNH188). For SMOR, a C-terminal GFP tag was added. Bacmid plasmids are listed in Supplementary Table 3. Plasmids were transformed into DH10Bac cells, and purified Bacmid was used to transfect Sf9 cells to generate P1 baculovirus, which was used to generate P2 virus. SF9 cells were infected with the P2 virus for 48 h. Flash-frozen pellets were lysed by sonication or high-pressure homogenization in lysis buffer B (50 mM Tris-HCl pH 8, 150 mM KCl, 0.5 mM EDTA, 1 mM DTT, 10% Glycerol, EDTA-free protease inhibitor tablet, 1 µg ml^−1 pepstatin A). After the lysate was applied to the StrepTrap column, the column was washed with wash buffer B (lysis buffer B lacking protease inhibitors) and eluted in the same buffer containing 2.5 mM desthiobiotin.
(§1) For all SMOR experiments, 24 × 50 mm high precision glass coverslips (Bioscience Tools) and drilled microscope slides were passivated with a combination of PEG and PEG-biotin (coverslips) or PEG only (slides) following a previously published protocol for SiMPull[31]. Reaction chambers (~20 µl) were created using double-sided tape and epoxy. Protein was immobilized on the surface with 0.2 mg ml^−1 NeutrAvidin in buffer C (20 mM HEPES pH 7.5, 150 mM KCl, 10% glycerol, 0.05% Tween-20, 1 mM DTT). Excess NeutrAvidin was washed away and incubated with either biotin-conjugated mouse monoclonal anti-Strep-Tag II antibody (LSBio, Cat. No. LS-C203632-100) or biotin-conjugated rabbit polyclonal anti-GFP antibody (Rockland, Cat. No. 600-406-215) diluted in buffer C + BSA (0.1 mg ml^−1; Molecular Biology Grade Bovine Serum Albumin). Activator WD40 and activated APC/C (typically 50 µl containing about 65 ng APC/C, of which only a small fraction is immobilized on the glass) were immobilized using anti-Strep-Tag II, while APC/C alone was immobilized with anti-GFP. SMOR results were similar when performed in the buffer (wash buffer B) used in polarization anisotropy.
(§2) To capture dynamic protein–protein interactions, dye-labeled substrate diluted in buffer C + BSA was added to the chamber containing immobilized proteins. Interactions were imaged by TIRF microscopy as described below. For optimal signal-to-noise ratio, peptide concentration was no greater than 1 nM. Protein substrates included Hsl1 aa 667–872 and a C-terminal HaloTag followed by a TAP tag, and were produced by translation in rabbit reticulocyte lysates using TnT Quick Coupled Transcription/Translation System (Promega) (see Supplementary Table 5 for plasmids). Protein was purified with magnetic IgG beads and labeled on the bead with JF549 or JF646 dye so that unbound dye could be washed away. Purified dye-labeled protein was then cleaved from the beads using TEV protease. Before adding substrate to the reaction chamber, oxygen scavenging reagents were added (10 nM protocatechuate-3,4-dioxygenase, 2.5 mM protocatechuic acid, and 1 mM Trolox)[41]. A detailed description of the SMOR analysis pipeline is found in Supplementary Note 1.
Microscopy was performed with a Nikon Eclipse TE2000-E with Perfect Focus with a 100 × 1.49na oil, Apo TIRF DIC N2, 0.13-0.2, WD0.12 objective. Movies were recorded using the Andor iXon DU-897E-CSO. For visualizing GFP-tagged protein, a 491 nm laser was used with an ET525/50 (Chroma) filter for emission. For visualizing JF549-labeled substrate, a 561 nm laser was used with an ET595/50 (Chroma) filter for emission. For visualizing all Cy5-labeled peptides and JF646-labeled substrates, a 640 nm laser was used with an ET685/70 filter (Chroma) for emission. […]

APC/C^apo = target: T2, APC/C^apo (Saccharomyces cerevisiae, UniProt P38042+P53068); assay: SMOR assay, yeast APC/C^apo (no activator); conditions: Supplementary Table 1, single movie
T2 construct: APC/C was purified from yeast cells; made in house; host or cells: S. cerevisiae W303 strain NHY13 (Cdc16-TAP, Apc1-GFP, cdh1 deleted)
Protocol: (§3) Yeast strains were derivatives of W303 and are listed in Supplementary Table 2. For APC/C purification, we used a strain carrying Cdc16-TAP and lacking Cdh1 (DOM1126); in most experiments, the strain also carried Apc1-GFP (NHY13). Yeast were grown in YPD media to OD600 = 0.8, collected and flash-frozen. Cells were lysed by bead beating in lysis buffer A (50 mM HEPES pH 7.5, 150 mM KCl, 10% glycerol, 0.2% Triton X-100, 63 µM B-glycerophosphate, 48 µM sodium fluoride, 1 µg ml^−1 pepstatin A, 1 µg ml^−1 leupeptin, 1 µg ml^−1 aprotinin, 1 mM PMSF, 1 mM DTT, 0.5 mM EDTA) and APC/C was purified using magnetic IgG beads. The beads were washed using wash buffer A (20 mM HEPES pH 7.5, 150 mM KCl, 10% Glycerol, 0.05% Triton X-100). After incubation with purified Cdh1 or Cdc20, the APC/C was cleaved off the beads with TEV protease in wash buffer A with 0.05% Tween-20 (for single-molecule studies) or 0.05% Triton X-100 (for ensemble assays such as ubiquitylation) and used immediately.
as §1, §2
(§4) Microscopy was performed with a Nikon Eclipse TE2000-E with Perfect Focus with a 100 × 1.49na oil, Apo TIRF DIC N2, 0.13-0.2, WD0.12 objective. Movies were recorded using the Andor iXon DU-897E-CSO. For visualizing GFP-tagged protein, a 491 nm laser was used with an ET525/50 (Chroma) filter for emission. For visualizing JF549-labeled substrate, a 561 nm laser was used with an ET595/50 (Chroma) filter for emission. For visualizing all Cy5-labeled peptides and JF646-labeled substrates, a 640 nm laser was used with an ET685/70 filter (Chroma) for emission. Initially, for each substrate tested, we acquired movies at multiple intervals to deduce the optimal interval to decrease bleaching. µManager version 2.0 was used to control the microscope and record time-lapse movies.

APC/C^Cdh1 = target: T3, APC/C^Cdh1 (Saccharomyces cerevisiae, UniProt P53068+P53197); conditions: for mean dwell time: representative of two independent experiments, ± SE, ligand ≤1 nM, buffer C + BSA
T3 construct: APC/C was purified from yeast cells; made in house; host or cells: APC/C from S. cerevisiae W303 strain NHY13 (Cdc16-TAP, Apc1-GFP, cdh1 deleted); Cdh1 from Sf9 (baculovirus)
Protocol: as §3, §1, §2, §4

[1] = Supplementary Table 1, replicate 1
[2] = Supplementary Table 1, replicate 2
[3] = Supplementary Table 1, replicate 1 (movie listed first)
[4] = Supplementary Table 1, replicate 2 (movie listed second)

T1 sequence (Q9UM11 165-484): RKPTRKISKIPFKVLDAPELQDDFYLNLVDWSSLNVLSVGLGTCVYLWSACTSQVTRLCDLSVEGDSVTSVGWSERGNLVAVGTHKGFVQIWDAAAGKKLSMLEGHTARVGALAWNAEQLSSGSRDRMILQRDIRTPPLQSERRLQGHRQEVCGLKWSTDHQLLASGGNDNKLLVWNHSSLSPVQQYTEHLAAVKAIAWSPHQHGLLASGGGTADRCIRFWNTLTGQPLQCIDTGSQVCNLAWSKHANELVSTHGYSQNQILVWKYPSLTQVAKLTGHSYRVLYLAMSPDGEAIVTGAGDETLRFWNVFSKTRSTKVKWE

Compound	Dwell Time (in words) (hCdh1^WD40; [1])	Dwell Time (in words) (hCdh1^WD40; [2])	Dwell Time (in words) (APC/C^apo)	Dwell Time (APC/C^Cdh1; [3])	Dwell Time (APC/C^Cdh1; [4])	mean dwell time (APC/C^Cdh1)	binding (in words) (hCdh1^WD40)	binding (in words) (APC/C^Cdh1)	Dwell Time (in words) (APC/C^Cdh1; [1])	Dwell Time (hCdh1^WD40; [3])	Dwell Time (hCdh1^WD40; [4])	mean dwell time (hCdh1^WD40)	Dwell Time (in words) (APC/C^Cdh1; [2])
CC(C)C[C@H](NC(=O)[C@H](C)NC(=O)[C@H](CCCNC(=N)N)NC(=O)[C@H](CCCNC(=N)N)NC(=O)[C@@H]1CCCN1C(=O)[C@H](CCCCN)NC(=O)[C@H](CO)NC(=O)[C@H](CC(=O)O)NC(=O)[C@@H](N)CCC(N)=O)C(=O)N[C@H](C(=O)N[C@@H](CC(=O)O)C(=O)N[C@H](C(=O)N1CCC[C@H]1C(=O)N[C@H](C(=O)N[C@@H](CC(N)=O)C(=O)N[C@@H](CC(N)=O)C(=O)N[C@@H](CC(N)=O)C(=O)N1CCC[C@H]1C(=O)N[C@@H](CC(C)C)C(=O)N[C@@H](CO)C(=O)N[C@@H](CCC(N)=O)C(=O)N[C@@H](CCCCN)C(=O)O)C(C)C)C(C)C)[C@@H](C)O [Clb5 D box] (H-QDSKPRRALTDVPVNNNPLSQK-OH; N-terminus and C-terminus assumed)	single frame	single frame	no binding	0.146 ± 0.007 s	0.159 ± 0.004 s	0.159 ± 0.004 s and 0.159 s							
CC[C@H](C)[C@H](NC(=O)[C@H](CC(=O)O)NC(=O)[C@H](CO)NC(=O)[C@H](C)NC(=O)[C@H](C)NC(=O)[C@H](C)NC(=O)[C@H](C)NC(=O)[C@H](CCCCN)NC(=O)[C@@H]1CCCN1C(=O)[C@H](CCCCN)NC(=O)[C@H](CCC(N)=O)NC(=O)[C@@H](N)CCC(=O)O)C(=O)N[C@H](C(=O)N[C@@H](C)C(=O)N[C@@H](CO)C(=O)N[C@@H](Cc1ccccc1)C(=O)N[C@@H](CC(N)=O)C(=O)N[C@@H](CCCCN)C(=O)N[C@@H](CCSC)C(=O)N[C@@H](CC(N)=O)C(=O)N[C@@H](CCCCN)C(=O)O)[C@@H](C)O [Hsl1 D box mutant] (H-EQKPKAAAASDITASFNKMNK-OH; N-terminus and C-terminus assumed)	no binding		no binding				No binding	No binding	no binding				
CC[C@H](C)[C@H](NC(=O)[C@H](Cc1ccccc1)NC(=O)[C@H](CO)NC(=O)[C@H](CCCCN)NC(=O)[C@H](CO)NC(=O)[C@H](CCCNC(=N)N)NC(=O)[C@H](CC(N)=O)NC(=O)[C@H](CC(N)=O)NC(=O)[C@H](CC(=O)O)NC(=O)[C@H](CCCCN)NC(=O)[C@H](C)NC(=O)[C@H](C)NC(=O)[C@H](CC(C)C)NC(=O)[C@@H]1CCCN1C(=O)[C@H](CC(C)C)NC(=O)[C@H](CCCNC(=N)N)NC(=O)CNC(=O)[C@H](CCC(N)=O)NC(=O)[C@H](CCC(N)=O)NC(=O)[C@H](CCC(N)=O)NC(=O)[C@H](C)N)C(=O)N[C@@H](CCCCN)C(=O)O [ySecurin D box] (H-AQQQGRLPLAAKDNNRSKSFIK-OH; N-terminus and C-terminus assumed)	single frame	single frame	no binding	0.132 ± 0.002 s	0.121 ± 0.006 s	0.132 ± 0.002 s and 0.132 s							
LIYVDKENGEPGTR-K(Cy5) [hSecurin KEN, Cy5-labeled KEN box peptide of human securin/Pttg1]			no binding					No binding	no binding	0.171 ± 0.004 s	0.174 ± 0.003 s	0.174 ± 0.003 s and 0.174 s	no binding
LPKATRKALGTVNRATEKSVK-K(Cy5) [AurKB D box, Cy5-labeled D box peptide of Aurora B kinase]			no binding					No binding	no binding	0.202 ± 0.003 s	0.135 ± 0.003 s	0.202 ± 0.003 s and 0.202 s	no binding
SKAAQFMLYEETAEERNI-K(Cy5) [Acm1 ABBA, Cy5-labeled Cdh1-specific ABBA motif from pseudosubstrate yeast protein Acm1]	no binding	no binding	no binding				No binding	No binding	no binding				no binding
